Among the data in patent US20260226068A1, “IMIDAZOTRIAZINE IL-17A MODULATORS AND USES THEREOF” (DICE ALPHA, INC., priority 2023, published 2026) are IC50 values, retold here.

One assay has as its target T1, IL-17A/A (Homo sapiens, UniProt Q16552).
T1 construct: purchased Genscript Z03228
T1 sequence (Q16552 24-155): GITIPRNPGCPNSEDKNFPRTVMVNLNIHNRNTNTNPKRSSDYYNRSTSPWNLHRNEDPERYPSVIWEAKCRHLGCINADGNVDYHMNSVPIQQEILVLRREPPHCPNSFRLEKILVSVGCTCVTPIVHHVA
The assay is described as follows: IL-17A/A HEK-Blue cell assay (SEAP reporter). The following applies: HEK-Blue IL-17A reporter cells, IL17A/A 5 ng/mL, 20 hours, SEAP read at A630; read-out: HEK-Blue IL17AA (IC50 for IL-17A/A inhibition). In kind it is cell-based.

Another assay concerns the target T2, IL-17A/F (Homo sapiens, UniProt Q16552+Q96PD4).
T2 construct: purchased R&D Systems
T2 sequence (Q16552 24-155): T1 sequence (Q16552 24-155)
T2 sequence (Q96PD4 31-163): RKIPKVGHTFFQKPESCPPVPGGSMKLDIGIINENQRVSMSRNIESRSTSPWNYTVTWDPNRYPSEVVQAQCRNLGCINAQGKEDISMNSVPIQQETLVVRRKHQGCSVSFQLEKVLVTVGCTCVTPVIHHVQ
The assay is described as follows: IL-17A/F HEK-Blue cell assay (SEAP reporter). In kind it is cell-based. As to conditions: HEK-Blue IL-17A reporter cells, IL17A/F 5 ng/mL, 20 hours, SEAP read at A630; read-out: HEK-Blue IL17AF (IC50 for IL-17A/F inhibition).

With `CC(C)n1nccc1C(=O)N[C@H](c1cn2nc(C[C@H]3C[C@@H](C(F)(F)F)CNC3=O)c(C3CCOCC3)nc2n1)C1CCC(F)(F)CC1` [Compound 147, N-((1S)-(4,4-difluorocyclohexyl)(2-(((3R,5R)-2-oxo-5-(trifluoromethyl)piperidin-3-yl)methyl)-3-(tetrahydro-2H-pyran-4-yl)imidazo[1,2-b][1,2,4]triazin-6-yl)methyl)-1-isopropyl-1H-pyrazole-5-carboxamide], the IC50 is below 100 nM at IL-17A/A and 100 to 1000 nM on IL-17A/F.
For `CCn1nccc1C(=O)N[C@H](c1cn2nc(CC3C[C@@H](C(F)(F)F)CNC3=O)c(N3CCOCC3)nc2n1)C1CCC(F)(F)CC1` (stereo partly drawn) [Compound 47] the same measures were below 100 nM and above 1000 nM.
On the same counts, the results for `CCn1nccc1C(=O)N[C@H](c1cn2nc(CC3C[C@@H](C(F)(F)F)CNC3=O)c(N3CC4CCC(C3)O4)nc2n1)[C@H]1CC[C@H](C)CC1` (single isomer, unassigned) [Compound 104] are below 100 nM and below 100 nM.
Regarding `CCn1nccc1C(=O)N[C@H](c1cn2nc(CC3C[C@@H](C(F)(F)F)CNC3=O)c(N3CCOCC3)nc2n1)[C@H]1CCCC(F)(F)C1` (single isomer, unassigned) [Compound 90], the IC50 at IL-17A/A is below 100 nM; on IL-17A/F it was 100 to 1000 nM.
For `CCn1nccc1C(=O)N[C@H](c1cn2nc(C[C@H]3C[C@@H](C(F)(F)F)CNC3=O)c([C@@H](C)N3CCOCC3)nc2n1)C1CCC(F)(F)CC1` (single isomer, unassigned) [Compound 227] the same measures were below 100 nM and 100 to 1000 nM.
For the compound `CCn1nccc1C(=O)N[C@H](c1cn2nc(CC3C[C@@H](C(F)(F)F)CNC3=O)c(N3CC4CC(C3)O4)nc2n1)[C@H]1CCCC(F)(F)C1` (single isomer, unassigned) [Compound 92], the results for the IC50 at IL-17A/A and at IL-17A/F were below 100 nM and 100 to 1000 nM, respectively.
On to `O=C(N[C@H](c1cn2nc(CC3C[C@@H](C(F)(F)F)CNC3=O)cnc2n1)C1CCC(F)(F)CC1)c1conc1C1CC1` (stereo partly drawn) [Compound 9, 3-cyclopropyl-N—((S)-(4,4-difluorocyclohexyl)(2-(((5R)-2-oxo-5-(trifluoromethyl)piperidin-3-yl)methyl)imidazo[1,2-b][1,2,4]triazin-6-yl)methyl)isoxazole-4-carboxamide], for which the figures for the IC50 on IL-17A/A and at IL-17A/F were below 100 nM and above 1000 nM, respectively.
For `C[C@H]1CN(c2nc3nc([C@@H](NC(=O)c4ccnn4C)[C@@H]4CCCC(F)(F)C4)cn3nc2C[C@H]2C[C@H](C(F)(F)F)CNC2=O)CCO1` [Compound 310, N—((S)—((R)-3,3-difluorocyclohexyl)(3-((S)-2-methylmorpholino)-2-(((3R,5S)-2-oxo-5-(trifluoromethyl)piperidin-3-yl)methyl)imidazo[1,2-b][1,2,4]triazin-6-yl)methyl)-1-methyl-1H-pyrazole-5-carboxamide] the same measures were below 100 nM and 100 to 1000 nM.
For `O=C(N[C@H](c1cn2nc(C[C@H]3C[C@@H](C(F)(F)F)CNC3=O)cnc2n1)C1CCC(F)(F)CC1)c1nonc1C1CC1` [Compound 43] the same measures were below 100 nM and above 1000 nM.
On the same counts, the results for `O=C(N[C@H](c1cn2nc(C[C@H]3C[C@@H](C(F)(F)F)CNC3=O)c(C3CCOCC3)nc2n1)C1CCC(F)(F)CC1)c1conc1C(F)(F)F` [Compound 191, N-((1S)-(4,4-difluorocyclohexyl)(2-(((3R,5R)-2-oxo-5-(trifluoromethyl)piperidin-3-yl)methyl)-3-(tetrahydro-2H-pyran-4-yl)imidazo[1,2-b][1,2,4]triazin-6-yl)methyl)-3-(trifluoromethyl)isoxazole-4-carboxamide] are below 100 nM and 100 to 1000 nM.
As to `O=C(N[C@H](c1cn2nc(C[C@H]3C[C@@H](C(F)(F)F)CNC3=O)c(C3CCCOC3)nc2n1)[C@H]1CCCC(F)(F)C1)c1nonc1C1CC1` (single isomer, unassigned) [Compound 125], the figures for the IC50 on IL-17A/A and on IL-17A/F were below 100 nM and above 1000 nM, respectively.
Consider `CCn1nccc1C(=O)N[C@H](c1cn2nc(C[C@H]3C[C@@H](C(F)(F)F)CNC3=O)c(C3CCOC3)nc2n1)[C@H]1CCCC(F)(F)C1` (single isomer, unassigned) [Compound 203], for which the IC50 at IL-17A/A and at IL-17A/F was below 100 nM throughout.
On to `O=C(N[C@H](c1cn2nc(C[C@H]3C[C@@H](C(F)(F)F)CNC3=O)cnc2n1)C(C1CC1)C1CC1)c1nonc1C1CC1` [Compound 39, 4-cyclopropyl-N—((S)-2,2-dicyclopropyl-1-(2-(((3R,5R)-2-oxo-5-(trifluoromethyl)piperidin-3-yl)methyl)imidazo[1,2-b][1,2,4]triazin-6-yl)ethyl)-1,2,5-oxadiazole-3-carboxamide], for which the IC50 is below 100 nM on IL-17A/A and above 1000 nM on IL-17A/F.
On the same counts, the results for `Cn1nccc1C(=O)N[C@H](c1cn2nc(C[C@H]3C[C@@H](C(F)(F)F)CNC3=O)c(C3CCOCC3)nc2n1)[C@H]1CCCC(F)(F)C1` [Compound 278, N—((S)—((S)-3,3-difluorocyclohexyl)(2-(((3R,5R)-2-oxo-5-(trifluoromethyl)piperidin-3-yl)methyl)-3-(tetrahydro-2H-pyran-4-yl)imidazo[1,2-b][1,2,4]triazin-6-yl)methyl)-1-methyl-1H-pyrazole-5-carboxamide] are below 100 nM and 100 to 1000 nM.
For `C[C@@H]1CN(c2nc3nc([C@@H](NC(=O)c4ccnn4C)[C@@H]4CCCC(F)(F)C4)cn3nc2C[C@H]2C[C@H](C(F)(F)F)CNC2=O)CCO1` [Compound 309, N—((S)—((R)-3,3-difluorocyclohexyl)(3-((R)-2-methylmorpholino)-2-(((3R,5S)-2-oxo-5-(trifluoromethyl)piperidin-3-yl)methyl)imidazo[1,2-b][1,2,4]triazin-6-yl)methyl)-1-methyl-1H-pyrazole-5-carboxamide] the same measures were below 100 nM and 100 to 1000 nM.
With `CCn1nccc1C(=O)N[C@H](c1cn2nc(C[C@H]3C[C@@H](C(F)(F)F)CNC3=O)c(C3CCN(C)C3)nc2n1)C1CCC(F)(F)CC1` (single isomer, unassigned) [Compound 285], the IC50 was 100 to 1000 nM on IL-17A/A and above 1000 nM at IL-17A/F.
For the compound `CCn1nccc1C(=O)N[C@H](c1cn2nc(C[C@H]3C[C@@H](C(F)(F)F)CC3=O)c(C3CCOCC3)nc2n1)C(C1CC1)C1CC1` [Compound 281], the IC50 is below 100 nM at IL-17A/A and 100 to 1000 nM on IL-17A/F.
With `CCn1nccc1C(=O)N[C@H](c1cn2nc(C[C@H]3C[C@@H](C(F)(F)F)CNC3=O)c(CN3CCOC(C)(C)C3)nc2n1)C1CCC(F)(F)CC1` [Compound 351, N—((S)-(4,4-difluorocyclohexyl)(3-((2,2-dimethylmorpholino)methyl)-2-(((3R,5R)-2-oxo-5-(trifluoromethyl)piperidin-3-yl)methyl)imidazo[1,2-b][1,2,4]triazin-6-yl)methyl)-1-ethyl-1H-pyrazole-5-carboxamide], the IC50 on IL-17A/A is below 100 nM; on IL-17A/F it was above 1000 nM.
